Values quoted from earlier work in patent US4139504A, “Novel nonapeptides, intermediates therefor, and compositions and methods employing said nonapeptides” (priority 1977, dated 1979).

What was measured:
[1] = tested on: brain opiate receptor sites
[2] = tested on: rat; conditions: injected directly into the brain of the rat

H--Tyr--Gly--Gly--Phe--Met--OH [methionine enkephalin]
binding to partially purified brain opiate receptor sites [1]: binds stereo-specifically | analgesic activity [2]: only weak analgesic agent of short duration
